Laboratory results as given in US20240218022A1, “ANTI-VISTA MACROCYCLIC PEPTIDES AND COMPOSITIONS” (BRISTOL-MYERS SQUIBB COMPANY, priority 2022, published 2024).
Starred links: 1 amine or outer side, 2 acyl side, 3 side chain; linkers in the order of their positions; H or OH if unused. Positions of bridges follow the written chain, without caps; N, C: chain ends. Non-standard residues stand in square brackets, D forms with d. Residues, ends and D or L forms follow the SMILES beside them. γGlu = O=C(O)[C@H](CCC(=O)[*:2])N[*:1]; 2Nal = N[C@@H](Cc1ccc2ccccc2c1)C(=O)O; Tic = O=C(O)[C@@H]1Cc2ccccc2CN1; Cit = NC(=O)NCCC[C@H](N)C(=O)O; NMeL = CN[C@@H](CC(C)C)C(=O)O; Ahp(2) = CCCCC[C@H](N)C(=O)O; NMeNle = CCCC[C@H](NC)C(=O)O; Tle = CC(C)(C)[C@H](N)C(=O)O; NHexGly = CCCCCCNCC(=O)O; Nle = CCCC[C@H](N)C(=O)O; Orn = NCCC[C@H](N)C(=O)O; Aun = NCCCCCCCCCCC(=O)O; AEEA = NCCOCCOCC(=O)O

molecular target: T1, mouse VISTA (mVISTA) (Mus musculus, UniProt Q9D659); test: Cell-Based Binding High-Content Assay For mVISTA (HC CBA mVISTA); details: cell-based binding high-content assay; read-out: HC CBA miPrISTA IC50
T1 construct: expressed in transfected cells; host or cells: Human embryonic kidney 293T cells
T1 sequence (Q9D659 33-308): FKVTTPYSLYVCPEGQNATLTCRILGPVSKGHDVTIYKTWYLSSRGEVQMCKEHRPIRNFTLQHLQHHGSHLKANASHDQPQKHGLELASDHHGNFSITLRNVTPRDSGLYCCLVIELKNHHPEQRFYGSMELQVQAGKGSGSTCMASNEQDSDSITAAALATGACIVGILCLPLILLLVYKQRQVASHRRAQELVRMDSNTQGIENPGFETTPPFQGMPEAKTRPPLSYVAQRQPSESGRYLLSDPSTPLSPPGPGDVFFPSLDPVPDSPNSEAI
Procedure, shortened: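 mVISTA-293T, 4,000 cells/well; cpd ± washout step; biotin-peptide 2 nM final, 30 min RT; SA-Alexa 647 30 min; formaldehyde/Hoechst fix; HCS imaging; 4PL IC50.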

Row | Structure (SMILES) | IC50 [nM]
1 | CCCCCCN1CC(=O)N[C@@H](Cc2ccc(O)cc2)C(=O)N[C@@H](CC(C)C)C(=O)N[C@@H](CC(N)=O)C(=O)N[C@@H](CCCNC(=N)N)C(=O)N[C@@H](CC(C)C)C(=O)N[C@@H](CCCCC)C(=O)N2CCC[C@H]2C(=O)N[C@@H](C(C)C)C(=O)N[C@@H](CO)C(=O)N[C@H](C(=O)NCCOCCOCC(=O)N[C@@H](CC(=O)O)C(=O)NCCOCCOCC(=O)NCCCCCCCCCCC(=O)O)CSCC(=O)N[C@@H](Cc2ccccc2)C(=O)N[C@@H](Cc2ccc(O)cc2)C(=O)N[C@@H](CC(=O)O)C1=O [compound 2285] ({CH2CO}-FYD[NHexGly]YLNRL[Ahp(2)]PVSC[AEEA]D[AEEA][Aun]-OH; thioether N-14) | 15.2
2 | CCCCCCN1CC(=O)N[C@@H](Cc2ccc(O)cc2)C(=O)N[C@@H](CCCCC)C(=O)NCC(=O)N[C@@H](CCCNC(=N)N)C(=O)N[C@@H](CC(C)C)C(=O)N[C@@H](CCCCC)C(=O)N2CCC[C@H]2C(=O)N[C@@H](C(C)C)C(=O)N[C@@H](CO)C(=O)N[C@H](C(=O)NCCOCCOCC(=O)N[C@@H](CC(=O)O)C(=O)NCCOCCOCC(=O)NCCCCCCCCCCC(=O)O)CSCC(=O)N[C@@H](Cc2ccccc2)C(=O)N[C@@H](Cc2ccc(O)cc2)C(=O)N[C@@H](CC(=O)O)C1=O [compound 2292] ({CH2CO}-FYD[NHexGly]Y[Ahp(2)]GRL[Ahp(2)]PVSC[AEEA]D[AEEA][Aun]-OH; thioether N-14) | 18.2
3 | CCCCCCN1CC(=O)N[C@@H](Cc2ccc(O)cc2)C(=O)N[C@@H](CCCC)C(=O)N[C@@H](CC(N)=O)C(=O)N[C@@H](CCCNC(=N)N)C(=O)N(C)[C@@H](CCCC)C(=O)N[C@@H](CCCCC)C(=O)N2CCC[C@H]2C(=O)N[C@@H](C(C)C)C(=O)N[C@@H](CC(=O)O)C(=O)N[C@H](C(=O)NCCOCCOCC(=O)N[C@@H](CC(=O)O)C(=O)NCCOCCOCC(=O)NCCCCCCCCCCC(=O)O)CSCC(=O)N[C@@H](Cc2ccccc2)C(=O)N[C@@H](Cc2c[nH]c3ccccc23)C(=O)N[C@@H](CC(=O)O)C1=O [compound 2293] ({CH2CO}-FWD[NHexGly]Y[Nle]NR[NMeNle][Ahp(2)]PVDC[AEEA]D[AEEA][Aun]-OH; thioether N-14) | 25.7
4 | CCCCCCN1CC(=O)N[C@@H](Cc2ccc(O)cc2)C(=O)N[C@@H](CCCC)C(=O)N[C@@H](CC(N)=O)C(=O)N[C@@H](CCCNC(=N)N)C(=O)N(C)[C@@H](CC(C)C)C(=O)N[C@@H](CCCCC)C(=O)N2CCC[C@H]2C(=O)N[C@@H](C(C)C)C(=O)N[C@@H](CO)C(=O)N[C@H](C(=O)NCCOCCOCC(=O)N[C@@H](CC(=O)O)C(=O)NCCOCCOCC(=O)NCCCCCCCCCCC(=O)O)CSCC(=O)N[C@@H](Cc2ccc3ccccc3c2)C(=O)N[C@@H](Cc2ccc(O)cc2)C(=O)N[C@@H](CC(=O)O)C1=O [compound 2313] ({CH2CO}-[2Nal]YD[NHexGly]Y[Nle]NR[NMeL][Ahp(2)]PVSC[AEEA]D[AEEA][Aun]-OH; thioether N-14) | 28.1
5 | CCCCCCN1CC(=O)N[C@@H](Cc2ccc(O)cc2)C(=O)N[C@@H](CCCC)C(=O)N[C@@H](CC(N)=O)C(=O)N[C@@H](CCCNC(N)=O)C(=O)N2Cc3ccccc3C[C@H]2C(=O)N[C@@H](CCCCC)C(=O)N2CCC[C@H]2C(=O)N[C@@H](C(C)C)C(=O)N[C@@H](CO)C(=O)N[C@H](C(=O)NCCOCCOCC(=O)N[C@@H](CC(=O)O)C(=O)NCCOCCOCC(=O)NCCCCCCCCCCC(=O)O)CSCC(=O)N[C@@H](Cc2ccc3ccccc3c2)C(=O)N[C@@H](Cc2ccc(O)cc2)C(=O)N[C@@H](CC(=O)O)C1=O [compound 2315] ({CH2CO}-[2Nal]YD[NHexGly]Y[Nle]N[Cit][Tic][Ahp(2)]PVSC[AEEA]D[AEEA][Aun]-OH; thioether N-14) | 18.3

Results, then the compound that gave them:

Row | IC50 [nM] | Structure (SMILES)
6 | 21.2 | CCCCCCN1CC(=O)N[C@@H](Cc2ccc(O)cc2)C(=O)N[C@@H](CCCCC)C(=O)NCC(=O)N[C@@H](CCCNC(N)=O)C(=O)N[C@@H](CC(C)C)C(=O)N[C@@H](CCCCC)C(=O)N2CCC[C@H]2C(=O)N[C@@H](C(C)C)C(=O)N[C@@H](CO)C(=O)N[C@H](C(=O)NCCOCCOCC(=O)N[C@@H](CC(=O)O)C(=O)NCCOCCOCC(=O)NCCCCCCCCCCC(=O)O)CSCC(=O)N[C@@H](Cc2ccccc2)C(=O)N[C@@H](Cc2ccc(O)cc2)C(=O)N[C@@H](CC(=O)O)C1=O [compound 2307] ({CH2CO}-FYD[NHexGly]Y[Ahp(2)]G[Cit]L[Ahp(2)]PVSC[AEEA]D[AEEA][Aun]-OH; thioether N-14)
7 | 14.6 | CCCCCCN1CC(=O)N[C@@H](Cc2ccc(O)cc2)C(=O)N[C@@H](C(C)C)C(=O)NCC(=O)N[C@@H](CCCNC(N)=O)C(=O)N[C@@H](CC(C)C)C(=O)N[C@@H](CCCCC)C(=O)N2CCC[C@H]2C(=O)N[C@@H](C(C)C)C(=O)N[C@@H](CC(=O)O)C(=O)N[C@H](C(=O)NCCOCCOCC(=O)N[C@@H](CC(=O)O)C(=O)NCCOCCOCC(=O)NCCCCCCCCCCC(=O)O)CSCC(=O)N[C@@H](Cc2ccc3ccccc3c2)C(=O)N[C@@H](Cc2ccc(O)cc2)C(=O)N[C@@H](CC(=O)O)C1=O [compound 2308] ({CH2CO}-[2Nal]YD[NHexGly]YVG[Cit]L[Ahp(2)]PVDC[AEEA]D[AEEA][Aun]-OH; thioether N-14)
8 | 25.1 | CCCCCCN1CC(=O)N[C@@H](Cc2ccc(O)cc2)C(=O)N[C@@H](CCCC)C(=O)N[C@@H](CC(N)=O)C(=O)N[C@@H](CCCNC(N)=O)C(=O)N(C)[C@@H](CCCC)C(=O)N[C@@H](CCCCC)C(=O)N2CCC[C@H]2C(=O)N[C@@H](C(C)C)C(=O)N[C@@H](CO)C(=O)N[C@H](C(=O)NCCOCCOCC(=O)N[C@@H](CC(=O)O)C(=O)NCCOCCOCC(=O)NCCCCCCCCCCC(=O)O)CSCC(=O)N[C@@H](Cc2ccc3ccccc3c2)C(=O)N[C@@H](Cc2ccc(O)cc2)C(=O)N[C@@H](CC(=O)O)C1=O [compound 2319] ({CH2CO}-[2Nal]YD[NHexGly]Y[Nle]N[Cit][NMeNle][Ahp(2)]PVSC[AEEA]D[AEEA][Aun]-OH; thioether N-14)

same assay, conditions: read-out: HC CBA mVISTA IC50

Row | Structure (SMILES) | IC50 [nM]
9 | CCCCCCN1CC(=O)N[C@@H](Cc2ccc(O)cc2)C(=O)N[C@@H](CC(C)C)C(=O)N[C@@H](CC(N)=O)C(=O)N[C@@H](CCCN)C(=O)N(C)[C@@H](CCCC)C(=O)N[C@@H](CCCCC)C(=O)N2CCC[C@H]2C(=O)N[C@@H](C(C)(C)C)C(=O)N[C@@H](CO)C(=O)N[C@H](C(=O)NCCOCCOCC(=O)N[C@@H](CCC(=O)NCCOCCOCC(=O)NCCCCCCCCCCC(=O)O)C(=O)O)CSCC(=O)N[C@@H](Cc2ccccc2)C(=O)N[C@@H](Cc2c[nH]c3ccccc23)C(=O)N[C@@H](CC(=O)O)C1=O [compound 2280] ({CH2CO}-FWD[NHexGly]YLN[Orn][NMeNle][Ahp(2)]P[Tle]SC[AEEA][γGlu][AEEA][Aun]-OH; thioether N-14) | 45.5
10 | CCCCCCN1CC(=O)N[C@@H](Cc2ccc(O)cc2)C(=O)N[C@@H](CC(C)C)C(=O)N[C@@H](CC(N)=O)C(=O)N[C@@H](CCCN)C(=O)N(C)[C@@H](CCCC)C(=O)N[C@@H](CCCCC)C(=O)N2CCC[C@H]2C(=O)N[C@@H](C(C)(C)C)C(=O)N[C@@H](C(C)C)C(=O)N[C@H](C(=O)NCCOCCOCC(=O)N[C@@H](CCC(=O)NCCOCCOCC(=O)NCCCCCCCCCCC(=O)O)C(=O)O)CSCC(=O)N[C@@H](Cc2ccccc2)C(=O)N[C@@H](Cc2c[nH]c3ccccc23)C(=O)N[C@@H](CC(=O)O)C1=O [compound 2282] ({CH2CO}-FWD[NHexGly]YLN[Orn][NMeNle][Ahp(2)]P[Tle]VC[AEEA][γGlu][AEEA][Aun]-OH; thioether N-14) | 34.9

Other lines, results leading:

Row | IC50 [nM] | Structure (SMILES)
11 | 28.6 | CCCCCCN1CC(=O)N[C@@H](Cc2ccc(O)cc2)C(=O)N[C@@H](CC(C)C)C(=O)N[C@@H](CC(N)=O)C(=O)N[C@@H](CCCN)C(=O)N(C)[C@@H](CCCC)C(=O)N[C@@H](CCCCC)C(=O)N2CCC[C@H]2C(=O)N[C@@H](C(C)(C)C)C(=O)N[C@@H](C(C)C)C(=O)N[C@H](C(=O)NCCOCCOCC(=O)N[C@@H](CCC(=O)NCCOCCOCC(=O)NCCCCCCCCCCC(=O)O)C(=O)O)CSCC(=O)N[C@@H](Cc2ccccc2)C(=O)N[C@@H](Cc2ccc(O)cc2)C(=O)N[C@@H](CC(=O)O)C1=O [compound 2279] ({CH2CO}-FYD[NHexGly]YLN[Orn][NMeNle][Ahp(2)]P[Tle]VC[AEEA][γGlu][AEEA][Aun]-OH; thioether N-14)
12 | 31.3 | CCCCCCN1CC(=O)N[C@@H](Cc2ccc(O)cc2)C(=O)N[C@@H](CC(C)C)C(=O)N[C@@H](CC(N)=O)C(=O)N[C@@H](CCCNC(=N)N)C(=O)N(C)[C@@H](CCCC)C(=O)N[C@@H](CCCCC)C(=O)N2CCC[C@H]2C(=O)N[C@@H](C(C)(C)C)C(=O)N[C@@H](C(C)C)C(=O)N[C@H](C(=O)NCCOCCOCC(=O)N[C@@H](CCC(=O)NCCOCCOCC(=O)NCCCCCCCCCCC(=O)O)C(=O)O)CSCC(=O)N[C@@H](Cc2ccccc2)C(=O)N[C@@H](Cc2c[nH]c3ccccc23)C(=O)N[C@@H](CC(=O)O)C1=O [compound 2281] ({CH2CO}-FWD[NHexGly]YLNR[NMeNle][Ahp(2)]P[Tle]VC[AEEA][γGlu][AEEA][Aun]-OH; thioether N-14)
13 | 27.8 | CCCCCCN1CC(=O)N[C@@H](Cc2ccc(O)cc2)C(=O)N[C@@H](CC(C)C)C(=O)N[C@@H](CC(N)=O)C(=O)N[C@@H](CCCN)C(=O)N(C)[C@@H](CCCC)C(=O)N[C@@H](CCCCC)C(=O)N2CCC[C@H]2C(=O)N[C@@H](C(C)(C)C)C(=O)N[C@@H](CC(=O)O)C(=O)N[C@H](C(=O)NCCOCCOCC(=O)N[C@@H](CCC(=O)NCCOCCOCC(=O)NCCCCCCCCCCC(=O)O)C(=O)O)CSCC(=O)N[C@@H](Cc2ccccc2)C(=O)N[C@@H](Cc2c[nH]c3ccccc23)C(=O)N[C@@H](CC(=O)O)C1=O [compound 2283] ({CH2CO}-FWD[NHexGly]YLN[Orn][NMeNle][Ahp(2)]P[Tle]DC[AEEA][γGlu][AEEA][Aun]-OH; thioether N-14)
